Test: molar heat capacity at constant pressure
Details: 101.33 kPa, Metastable crystal

O=P([O-])([O-])[O-].[Tb+3] [terbium orthophosphate]
Details	molar heat capacity at constant pressure [J/K/mol]
291.41 K, Vacuum adiabatic calorimetry	108
294.82 K, Vacuum adiabatic calorimetry	108.6
298.47 K, Vacuum adiabatic calorimetry	109.3
300 K, Vacuum adiabatic calorimetry	109.8
302.47 K, Vacuum adiabatic calorimetry	110
307.42 K, Vacuum adiabatic calorimetry	110.9
310 K, Vacuum adiabatic calorimetry	111.5
313.46 K, Vacuum adiabatic calorimetry	112.2
320 K, Vacuum adiabatic calorimetry	113.1
320.4 K, Vacuum adiabatic calorimetry	113.3
325 K, Vacuum adiabatic calorimetry	113.9
327.27 K, Vacuum adiabatic calorimetry	114.3
334.07 K, Vacuum adiabatic calorimetry	115.4
340 K, Small sample (50 mg) DSC	116.3
340.79 K, Vacuum adiabatic calorimetry	116.6
347.44 K, Vacuum adiabatic calorimetry	117.5
360 K, Small sample (50 mg) DSC	119
380 K, Small sample (50 mg) DSC	121.5
400 K, Small sample (50 mg) DSC	123.7
420 K, Small sample (50 mg) DSC	125.6
433.9 K, Small sample (50 mg) DSC	128.2
438.9 K, Small sample (50 mg) DSC	128.4
440 K, Small sample (50 mg) DSC	127.4
443.9 K, Small sample (50 mg) DSC	128.3
448.9 K, Small sample (50 mg) DSC	128.3
453.9 K, Small sample (50 mg) DSC	128.3
458.9 K, Small sample (50 mg) DSC	128.5
460 K, Small sample (50 mg) DSC	129
463.9 K, Small sample (50 mg) DSC	128.6
468.9 K, Small sample (50 mg) DSC	129
473.9 K, Small sample (50 mg) DSC	129.1
478.9 K, Small sample (50 mg) DSC	129.3
480 K, Small sample (50 mg) DSC	130.4
483.9 K, Small sample (50 mg) DSC	129.7
488.9 K, Small sample (50 mg) DSC	130.2
493.9 K, Small sample (50 mg) DSC	130.7
498.9 K, Small sample (50 mg) DSC	131.4
500 K, Small sample (50 mg) DSC	131.7
503.9 K, Small sample (50 mg) DSC	131.7
508.9 K, Small sample (50 mg) DSC	132.1
513.9 K, Small sample (50 mg) DSC	132.7
518.9 K, Small sample (50 mg) DSC	132.9
520 K, Small sample (50 mg) DSC	132.9
523.9 K, Small sample (50 mg) DSC	133.1
528.9 K, Small sample (50 mg) DSC	133.7
533.9 K, Small sample (50 mg) DSC	134.6
538.9 K, Small sample (50 mg) DSC	135.3
540 K, Small sample (50 mg) DSC	134
543.9 K, Small sample (50 mg) DSC	135.7
548.9 K, Small sample (50 mg) DSC	136.1
553.9 K, Small sample (50 mg) DSC	136.5
558.9 K, Small sample (50 mg) DSC	136.9
560 K, Small sample (50 mg) DSC	135
563.9 K, Small sample (50 mg) DSC	137.2
568.9 K, Small sample (50 mg) DSC	137.5
573.9 K, Small sample (50 mg) DSC	138
578.9 K, Small sample (50 mg) DSC	138.3
580 K, Small sample (50 mg) DSC	135.8
583.9 K, Small sample (50 mg) DSC	138.2
588.9 K, Small sample (50 mg) DSC	138.1
593.9 K, Small sample (50 mg) DSC	138.4
598.9 K, Small sample (50 mg) DSC	138.7
600 K, Small sample (50 mg) DSC	136.7
603.9 K, Small sample (50 mg) DSC	138.6
608.9 K, Small sample (50 mg) DSC	138.7
613.9 K, Small sample (50 mg) DSC	138.4
618.9 K, Small sample (50 mg) DSC	138.5
620 K, Small sample (50 mg) DSC	137.4
623.9 K, Small sample (50 mg) DSC	138.6
628.9 K, Small sample (50 mg) DSC	138.4
633.9 K, Small sample (50 mg) DSC	136.7
638.9 K, Small sample (50 mg) DSC	135.8
640 K, Small sample (50 mg) DSC	138.1
643.9 K, Small sample (50 mg) DSC	135.7
648.9 K, Small sample (50 mg) DSC	135.9
653.9 K, Small sample (50 mg) DSC	136.3
658.9 K, Small sample (50 mg) DSC	136.4
660 K, Small sample (50 mg) DSC	138.7
663.9 K, Small sample (50 mg) DSC	136.8
668.9 K, Small sample (50 mg) DSC	136.7
673.9 K, Small sample (50 mg) DSC	136.7
678.9 K, Small sample (50 mg) DSC	136.8
680 K, Small sample (50 mg) DSC	139.3
683.9 K, Small sample (50 mg) DSC	136.8
688.9 K, Small sample (50 mg) DSC	136.9
693.9 K, Small sample (50 mg) DSC	137.1
698.9 K, Small sample (50 mg) DSC	137.5
700 K, Small sample (50 mg) DSC	139.9
703.9 K, Small sample (50 mg) DSC	138
708.9 K, Small sample (50 mg) DSC	138.4
713.9 K, Small sample (50 mg) DSC	138.9
718.9 K, Small sample (50 mg) DSC	139.3
720 K, Small sample (50 mg) DSC	140.4
723.9 K, Small sample (50 mg) DSC	139.1
728.9 K, Small sample (50 mg) DSC	139.3
733.9 K, Small sample (50 mg) DSC	139.2
738.9 K, Small sample (50 mg) DSC	139.5
740 K, Small sample (50 mg) DSC	140.8
743.9 K, Small sample (50 mg) DSC	139.8
748.9 K, Small sample (50 mg) DSC	140.3
753.9 K, Small sample (50 mg) DSC	140.6
758.9 K, Small sample (50 mg) DSC	141.1
760 K, Small sample (50 mg) DSC	141.2
763.9 K, Small sample (50 mg) DSC	141.3
768.9 K, Small sample (50 mg) DSC	141.7
773.9 K, Small sample (50 mg) DSC	141.7
778.9 K, Small sample (50 mg) DSC	141.7
780 K, Small sample (50 mg) DSC	141.6
783.9 K, Small sample (50 mg) DSC	141.5
788.9 K, Small sample (50 mg) DSC	141.5
793.9 K, Small sample (50 mg) DSC	141.8
798.9 K, Small sample (50 mg) DSC	142.4
800 K, Small sample (50 mg) DSC	142
803.9 K, Small sample (50 mg) DSC	142.5
808.9 K, Small sample (50 mg) DSC	142.6
813.9 K, Small sample (50 mg) DSC	142.7
818.9 K, Small sample (50 mg) DSC	143.1
820 K, Small sample (50 mg) DSC	142.4
823.9 K, Small sample (50 mg) DSC	143
828.9 K, Small sample (50 mg) DSC	142.9
833.9 K, Small sample (50 mg) DSC	143.1
838.9 K, Small sample (50 mg) DSC	142.9
840 K, Small sample (50 mg) DSC	142.7
843.9 K, Small sample (50 mg) DSC	143.2
848.9 K, Small sample (50 mg) DSC	142.9
853.9 K, Small sample (50 mg) DSC	142.8
858.9 K, Small sample (50 mg) DSC	142.7
860 K, Small sample (50 mg) DSC	143
863.9 K, Small sample (50 mg) DSC	142.4
868.9 K, Small sample (50 mg) DSC	142
873.9 K, Small sample (50 mg) DSC	141.5
878.9 K, Small sample (50 mg) DSC	141.9
880 K, Small sample (50 mg) DSC	143.3
883.9 K, Small sample (50 mg) DSC	141.8
888.9 K, Small sample (50 mg) DSC	141.7
893.9 K, Small sample (50 mg) DSC	141.6
898.9 K, Small sample (50 mg) DSC	141.8
900 K, Small sample (50 mg) DSC	143.6
903.9 K, Small sample (50 mg) DSC	141.5
908.9 K, Small sample (50 mg) DSC	141.4
913.9 K, Small sample (50 mg) DSC	141.7
918.9 K, Small sample (50 mg) DSC	141.8
920 K, Small sample (50 mg) DSC	143.8
923.9 K, Small sample (50 mg) DSC	142.1
928.9 K, Small sample (50 mg) DSC	142.7
933.9 K, Small sample (50 mg) DSC	143
938.9 K, Small sample (50 mg) DSC	142.9
940 K, Small sample (50 mg) DSC	144
943.9 K, Small sample (50 mg) DSC	142.4
948.9 K, Small sample (50 mg) DSC	142.6
953.9 K, Small sample (50 mg) DSC	142.6
958.9 K, Small sample (50 mg) DSC	143.1
960 K, Small sample (50 mg) DSC	144.3
963.9 K, Small sample (50 mg) DSC	142.7
968.9 K, Small sample (50 mg) DSC	142.8
973.9 K, Small sample (50 mg) DSC	142.8
978.9 K, Small sample (50 mg) DSC	142.6
980 K, Small sample (50 mg) DSC	144.5
983.9 K, Small sample (50 mg) DSC	142.5
988.9 K, Small sample (50 mg) DSC	142.5
993.9 K, Small sample (50 mg) DSC	142.6
998.9 K, Small sample (50 mg) DSC	142.9
1000 K, Small sample (50 mg) DSC	144.7
1003.9 K, Small sample (50 mg) DSC	143
1008.9 K, Small sample (50 mg) DSC	143.3
1009 K, Small sample (50 mg) DSC	144.8
